The test system of assay [1] is Escherichia coli. The assay can be described thus: Compound was evaluated for antibacterial activity against Escherichia coli. It is filed as functional.
Another assay has as its system Staphylococcus capitis. Description: Compound was evaluated for antibacterial activity against Staphylococcus capitis. It is filed as functional.
Assay [2] has as its target Peptide deformylase (Escherichia coli) (UniProt P0A6K3). Description: Compound was evaluated for inhibition of peptide deformylase, PDF.Ni of Escherichia coli at concentration of 1 uM.
For assay [3], the system named is Escherichia coli. The assay can be described thus: Compound was evaluated for antibacterial activity against Escherichia coli in the range of 75-100 uM; Exerted a moderate antibacterial effect. It is filed as functional.

Structures are written as SMILES. ≈ marks a conversion by molar mass, not a printed value.

Sequence of Peptide deformylase (Escherichia coli) (P0A6K3 whole entry, looked up): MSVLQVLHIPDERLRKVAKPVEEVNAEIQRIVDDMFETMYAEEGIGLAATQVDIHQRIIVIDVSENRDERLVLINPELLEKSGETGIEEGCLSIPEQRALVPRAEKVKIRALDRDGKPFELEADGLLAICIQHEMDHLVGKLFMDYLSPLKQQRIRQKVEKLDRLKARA

For `CCCC[C@H](CC(=O)NO)C(=O)N[C@H](C(=O)N(C)C)C(C)(C)C`, the MIC came out at 25 µM (≈ 8.24 µg/mL) against Escherichia coli [1] and 100 µM (≈ 32.9 µg/mL) against Staphylococcus capitis.

In the case of `CCCC[C@H](CNC=O)C(=O)N[C@H](C(=O)N(C)C)C(C)(C)C`, the MIC in the assay with Escherichia coli [1] and against Staphylococcus capitis was above 200 µM in each case.

On to `CCCC[C@H](CS)C(=O)N[C@H](C(=O)N(C)C)C(C)(C)C`, for which the inhibition in assay [2] was determined as 10%. Moreover, the minimum inhibitory concentration (MIC) in the assay with Escherichia coli [1] and in the assay on Staphylococcus capitis was above 200 µM in each case.

Take `CCCCC(C[PH](=O)O)C(=O)N[C@H](C(=O)N(C)C)C(C)(C)C` (stereo partly specified): the MIC in the assay on Escherichia coli [1] and in the assay on Staphylococcus capitis was above 200 µM each time.

On to `CCCC[C@H](CN(O)C(C)=O)C(=O)N[C@H](C(=O)N(C)C)C(C)(C)C`, for which, in assay [2], the inhibition was 60%. Also, the MIC against Escherichia coli [1] and in the assay with Staphylococcus capitis was above 200 µM in each case.

Turning to `CCCC[C@H](NC(=O)NO)C(=O)N[C@H](C(=O)N(C)C)C(C)(C)C`, in assay [2], the inhibition came to 40%. The MIC against Escherichia coli [1] and in the assay on Staphylococcus capitis was above 200 µM in each case.

For the compound `CCCC[C@H](CN(O)C(N)=O)C(=O)N[C@H](C(=O)N(C)C)C(C)(C)C`, the MIC in the assay with Escherichia coli [1] and in the assay on Staphylococcus capitis was above 200 µM throughout.

The compound `CCCC[C@H](CS)C(=O)N[C@@H](CCCCN)C(=O)Nc1ccc([N+](=O)[O-])cc1` came in with an MIC against Escherichia coli [3] of 75 µM (≈ 30.8 µg/mL).

For the compound `CCCC[C@H](NCC(=O)O)C(=O)N[C@H](C(=O)N(C)C)C(C)(C)C`, the MIC in the assay on Escherichia coli [1] and against Staphylococcus capitis was above 200 µM in each case.

In the case of `CCCC[C@H](CC(=O)NN)C(=O)N[C@H](C(=O)N(C)C)C(C)(C)C`, the MIC with Escherichia coli [1] and against Staphylococcus capitis was above 200 µM each time.

On to `CCCC[C@H](CC(=O)O)C(=O)N[C@H](C(=O)N(C)C)C(C)(C)C`, for which the MIC against Escherichia coli [1] and with Staphylococcus capitis was above 200 µM in each case.

Regarding `CCCC[C@H](OC(=O)NO)C(=O)N[C@H](C(=O)N(C)C)C(C)(C)C`, in assay [2], the inhibition is 20%. Also, the MIC with Escherichia coli [1] and in the assay with Staphylococcus capitis was above 200 µM each time.

Take `CCCCC(CP(=O)(O)O)C(=O)N[C@H](C(=O)N(C)C)C(C)(C)C` (stereo partly specified): the MIC in the assay on Escherichia coli [1] and in the assay with Staphylococcus capitis was above 200 µM throughout.

As for `CCCCC(CC(=N)NO)C(=O)N[C@H](C(=O)N(C)C)C(C)(C)C` (stereo partly specified), the MIC against Escherichia coli [1] and against Staphylococcus capitis was above 200 µM each time.

The values are drawn from ChEMBL document CHEMBL1135853, “Structure-activity relationships of the peptide deformylase inhibitor BB-3497: modification of the metal binding group” (Bioorg Med Chem Lett, 2002).
